Common to all, as to format: biochemical
The target of one test is CDK4/CCND3 (Homo sapiens, UniProt P11802). The test can be described thus: CDK4 homogeneous time-resolved fluorescence (HTRF) kinase assay. Particulars: CDK4/CCND. As to the method:
(§1) A CDK homogeneous time-resolved fluorescence (HTRF) assay was used to assess the potency of the compounds described herein.
(§2) To an untreated 384-well microtiter plate (ProxiPlate) was added 100 nL 100×test compound in DMSO and 5 μL 2×CDK enzyme in assay buffer (50 mM HEPES, 1 mM EGTA, 10 mM MgCl2, 0.01% Tween 20, 2 mM DTT). The plate was centrifuged at 800 RPM for 1 min then incubated for 20 min at 23 °C. 2.5 μL per well of 4×ATP and 2.5 μL 4×ULight™-eIF4E-binding protein 1 (Thr37/46) Peptide substrate were added to all wells. After addition, the plates were centrifuged at 800 RPM for 1 min. The plates were incubated at 23 °C for 60 min. 5 μL per well 4×EDTA solution were added to each well to stop the reaction. 5 μL 4×LANCE Ultra Europium-anti-phospho-eIF4E-binding protein 1 (Thr37/46) antibody were added to each well and the plate was centrifuged for 1 min at 800 RPM. The plate was incubated for 60 min at 23 °C. Fluorescence was read at 340 nm excitation and 665 nm emission on an EnVision 2105 fluorescence reader. The final concentrations of reagents in the activity assay were 1.5 nM CDK4/CCND3, 1 mM ATP, 50 nM ULight™-eIF4E-binding protein 1 (Thr37/46) Peptide substrate, 1% DMSO, 10 mM EDTA, and 2 nM LANCE Ultra Europium-anti-phospho-eIF4E-binding protein 1 (Thr37/46).
(§3) Dose-response titrations were conducted by using an 11-point, half-logarithmic serial dilution scheme typically starting at 10 μM. Signals were reported as fluorescence units at 665 nm or the ratio of fluorescence units at 665 nm/fluorescence units at 615 nm. Signals are referred to below as “Lance signals”.
(§4) Using this assay, the IC50 values of example compounds were determined. Table 3 illustrates the IC50 for various Example compounds of Formula IA. Table 4 illustrates the IC50 for various other Example compounds of Formula I. ND=not determined.
(Time-resolved FRET reads energy transfer from a long-lived donor to a nearby acceptor.)

For another test, the target named is CDK1/CCNB1 (Homo sapiens, UniProt P06493). The experiment in a line: CDK1 homogeneous time-resolved fluorescence (HTRF) kinase assay. The note with it: CDK1/CCNB. The gist of the method: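 0.5 nM CDK1/CCNB1 was preincubated 20 min at 23 °C with compound in HEPES pH-unspecified buffer (MgCl2, EGTA, DTT, Tween 20), then reacted 60 min with 1 mM ATP and 50 nM ULight-4E-BP1 (Thr37/46) peptide. EDTA-stopped reactions were detected with 2 nM Eu-anti-phospho antibody; IC50 from 11-point half-log titrations.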

A further test deals with CDK6/CCND1 (Homo sapiens, UniProt Q00534). The test can be described thus: CDK6 homogeneous time-resolved fluorescence (HTRF) kinase assay. Particulars: CDK6/CCND. Here is the method: as §1
as §2, with “1” for “1.5”, “CDK6/CCND1,” for “CDK4/CCND3,”
as §3, §4

The target of a further test is CDK2/CCNE1 (Homo sapiens, UniProt P24941). The test can be described thus: CDK2 homogeneous time-resolved fluorescence (HTRF) kinase assay. The note with it: CDK2/CCNE. The gist of the method: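 An HTRF format measures CDK2/CCNE1 (3 nM) phosphorylating a 4E-BP1 Thr37/46 peptide at high (1 mM) ATP. Reactions run one hour at 23 °C, then EDTA-quenched and probed with Eu-labelled phospho-specific antibody.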

Where [1] appears, read: x = IC50 25-250 nM, read-out: CDK4/CCND IC50 (25-250 nM).
Setting [2] is: x = IC50 25-250 nM, read-out: CDK1/CCNB IC50 (25-250 nM).
[3] abbreviates: <25 nM, read-out: CDK4/CCND IC50 <25 nM.
Setting [4] is: >250 nM marked x, read-out: CDK1/CCNB IC50 >250 nM.
[5] abbreviates: 25-250 nM marked x, read-out: CDK6/CCND IC50 25-250 nM.
The mark [6] stands for this setting: 25-250 nM marked x, read-out: CDK4/CCND IC50 25-250 nM.
[7] abbreviates: 25-250 nM marked x, read-out: CDK1/CCNB IC50 25-250 nM.
Setting [8] is: x = IC50 <25 nM, read-out: CDK2/CCNE IC50 (<25 nM).
Where [9] appears, read: x = IC50 >250 nM, read-out: CDK4/CCND IC50 (>250 nM column).
[10] abbreviates: x = IC50 >250 nM, read-out: CDK6/CCND IC50 (>250 nM column).

Where two headings read alike, the source gives them in different places.

CDK6/CCND1, sequence (Q00534 whole entry): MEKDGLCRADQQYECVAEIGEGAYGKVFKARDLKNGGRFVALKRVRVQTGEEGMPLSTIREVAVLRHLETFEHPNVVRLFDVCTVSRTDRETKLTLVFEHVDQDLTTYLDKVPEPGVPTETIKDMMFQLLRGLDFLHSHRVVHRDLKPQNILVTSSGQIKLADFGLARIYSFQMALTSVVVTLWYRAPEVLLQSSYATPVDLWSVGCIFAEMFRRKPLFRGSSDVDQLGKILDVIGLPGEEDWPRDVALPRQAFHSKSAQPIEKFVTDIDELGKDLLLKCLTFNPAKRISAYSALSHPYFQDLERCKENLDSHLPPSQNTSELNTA
CDK6/CCND1, sequence (P24385 whole entry partner): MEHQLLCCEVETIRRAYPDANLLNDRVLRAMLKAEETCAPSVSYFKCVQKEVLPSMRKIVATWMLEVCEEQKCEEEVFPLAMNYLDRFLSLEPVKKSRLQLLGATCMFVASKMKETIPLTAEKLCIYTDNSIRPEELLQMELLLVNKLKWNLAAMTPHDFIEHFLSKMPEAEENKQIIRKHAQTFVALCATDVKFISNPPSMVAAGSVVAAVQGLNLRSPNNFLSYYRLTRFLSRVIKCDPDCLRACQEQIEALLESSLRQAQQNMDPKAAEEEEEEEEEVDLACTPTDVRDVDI
CDK1/CCNB1, sequence (P06493 whole entry): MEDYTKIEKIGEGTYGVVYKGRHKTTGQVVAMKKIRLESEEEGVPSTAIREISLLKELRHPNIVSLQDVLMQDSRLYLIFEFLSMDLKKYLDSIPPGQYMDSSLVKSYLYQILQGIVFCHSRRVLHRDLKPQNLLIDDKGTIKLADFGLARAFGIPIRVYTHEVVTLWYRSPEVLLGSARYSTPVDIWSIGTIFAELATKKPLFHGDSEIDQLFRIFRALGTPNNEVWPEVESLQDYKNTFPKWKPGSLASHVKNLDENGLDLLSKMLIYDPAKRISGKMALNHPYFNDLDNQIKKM
CDK1/CCNB1, sequence (P14635 whole entry partner): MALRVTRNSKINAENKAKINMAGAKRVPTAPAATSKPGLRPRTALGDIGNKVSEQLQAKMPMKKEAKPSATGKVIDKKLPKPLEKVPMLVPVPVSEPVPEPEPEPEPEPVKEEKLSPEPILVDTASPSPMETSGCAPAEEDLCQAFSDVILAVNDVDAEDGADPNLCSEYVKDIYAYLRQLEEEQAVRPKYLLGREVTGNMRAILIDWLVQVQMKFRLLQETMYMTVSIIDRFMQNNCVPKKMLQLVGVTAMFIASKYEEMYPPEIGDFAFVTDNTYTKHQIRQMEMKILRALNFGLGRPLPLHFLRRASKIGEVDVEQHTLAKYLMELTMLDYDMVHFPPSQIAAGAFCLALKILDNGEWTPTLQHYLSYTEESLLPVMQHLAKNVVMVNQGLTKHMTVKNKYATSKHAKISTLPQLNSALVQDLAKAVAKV
CDK4/CCND3, sequence (P11802 whole entry): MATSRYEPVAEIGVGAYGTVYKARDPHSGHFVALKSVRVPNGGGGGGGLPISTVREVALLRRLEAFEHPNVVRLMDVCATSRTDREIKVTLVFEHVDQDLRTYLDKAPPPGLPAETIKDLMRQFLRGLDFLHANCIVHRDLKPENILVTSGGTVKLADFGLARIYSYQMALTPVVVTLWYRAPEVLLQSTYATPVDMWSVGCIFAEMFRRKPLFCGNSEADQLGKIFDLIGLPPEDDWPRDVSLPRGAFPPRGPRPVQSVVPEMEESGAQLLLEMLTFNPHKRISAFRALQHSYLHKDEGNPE
CDK4/CCND3, sequence (P30281 whole entry partner): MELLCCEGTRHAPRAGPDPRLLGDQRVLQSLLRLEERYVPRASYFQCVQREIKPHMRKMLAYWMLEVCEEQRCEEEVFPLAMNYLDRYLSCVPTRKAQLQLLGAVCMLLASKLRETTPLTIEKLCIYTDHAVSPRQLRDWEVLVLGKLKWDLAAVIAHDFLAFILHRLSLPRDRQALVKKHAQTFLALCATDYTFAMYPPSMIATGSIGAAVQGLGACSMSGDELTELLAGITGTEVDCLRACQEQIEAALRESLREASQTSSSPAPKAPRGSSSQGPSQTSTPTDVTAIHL

With `CCS(=N)(=O)c1ccc(Nc2cc3c(C#Cc4ccc5c(c4)NC(=O)C54CC4)nccc3cn2)cc1` (racemic) [Ex 376, 6'-((7-((4-(ethylsulfonimidoyl)phenyl)amino)-2,6-naphthyridin-1-yl)ethynyl)spiro[cyclopropane-1,3'-indolin]-2'-one], the IC50 on CDK4/CCND3 (setting [1]) lay in the range of 25 to 250 nM; on CDK1/CCNB1 (setting [2]), 25 to 250 nM; on CDK6/CCND1 (x = IC50 25-250 nM, read-out: CDK6/CCND IC50 (25-250 nM)) it was 25 to 250 nM.

As for `CNC(=O)C1CCCN(c2nccc3cnc(NC4CCN(S(C)(=O)=O)CC4)cc23)C1` (single isomer, unassigned) [Ex 33, N-methyl-1-(7-((1-(methylsulfonyl)piperidin-4-yl)amino)-2,6-naphthyridin-1-yl)piperidine-3-carboxamide], the IC50 on CDK4/CCND3 (setting [3]) is less than 25 nM; on CDK1/CCNB1 (setting [4]) it was greater than 250 nM; at CDK6/CCND1 (setting [5]), 25 to 250 nM.

For `CS(=O)(=O)N1CCC(Nc2cc3c(N4CCC(C#N)C4)nccc3cn2)CC1` (single isomer, unassigned) [Ex 261, 1-(7-((1-(methylsulfonyl)piperidin-4-yl)amino)-2,6-naphthyridin-1-yl)pyrrolidine-3-carbonitrile], the IC50 at CDK4/CCND3 (setting [6]) was 25 to 250 nM; at CDK1/CCNB1 (setting [4]), greater than 250 nM; at CDK6/CCND1 (setting [5]) it was 25 to 250 nM.

`CCS(=N)(=O)c1ccc(Nc2cc3c(C#Cc4ccc5c(c4)NC(=O)C54CC4)nccc3cn2)c(OC)c1` (single isomer, unassigned) [Ex 290, 6'-((7-((4-(ethylsulfonimidoyl)-2-methoxyphenyl)amino)-2,6-naphthyridin-1-yl)ethynyl)spiro[cyclopropane-1,3'-indolin]-2'-one]: the IC50 at CDK4/CCND3 (setting [6]), on CDK1/CCNB1 (setting [7]) and on CDK6/CCND1 (setting [5]) was 25 to 250 nM throughout.

Regarding `CC(C)S(=N)(=O)c1ccc(Nc2cc3c(C#Cc4ccc5c(c4)NC(=O)C5(C)CO)nccc3cn2)cc1` (single isomer, unassigned) [Ex 329, 3-(hydroxymethyl)-3-methyl-6-((7-((4-(propan-2-ylsulfonimidoyl)phenyl)amino)-2,6-naphthyridin-1-yl)ethynyl)indolin-2-one], the IC50 on CDK4/CCND3 (setting [3]) was less than 25 nM; on CDK6/CCND1 (setting [5]), 25 to 250 nM.

Turning to `Cc1cc(S(C)(=N)=O)ccc1Nc1cc2c(C#Cc3ccc4c(c3)NC(=O)C43CCC3)nccc2cn1` (single isomer, unassigned) [Ex 333, 6'-((7-((2-methyl-4-(S-methylsulfonimidoyl)phenyl)amino)-2,6-naphthyridin-1-yl)ethynyl)spiro[cyclobutane-1,3'-indolin]-2'-one], the IC50 on CDK4/CCND3 (setting [6]) and at CDK1/CCNB1 (setting [7]) was 25 to 250 nM throughout.

For the compound `Cc1cc2c(cc1C#Cc1nccc3cnc(Nc4ccc(S(=N)(=O)C(C)C)cc4)cc13)NC(=O)C2(C)C` (single isomer, unassigned) [Ex 343, 3,3,5-trimethyl-6-((7-((4-(propan-2-ylsulfonimidoyl)phenyl)amino)-2,6-naphthyridin-1-yl)ethynyl)indolin-2-one], the results for the IC50 on CDK4/CCND3 (setting [1]), at CDK2/CCNE1 (setting [8]) and at CDK1/CCNB1 (setting [2]) were 25 to 250 nM, less than 25 nM and 25 to 250 nM, respectively.

Turning to `N=S(=O)(c1ccc(Nc2cc3c(C#Cc4ccc5c(c4)NC(=O)C54CC4)nccc3cn2)cc1)C1CCC1` (single isomer, unassigned) [Ex 353, 6'-((7-((4-(cyclobutanesulfonimidoyl)phenyl)amino)-2,6-naphthyridin-1-yl)ethynyl)spiro[cyclopropane-1,3'-indolin]-2'-one], at CDK4/CCND3 (setting [1]), the IC50 was in the range of 25 to 250 nM.

Regarding `CC(C)S(=N)(=O)c1ccc(Nc2cc3c(C#Cc4ccc5c(c4)NC(=O)C54CCC4)nccc3cn2)cc1` (single isomer, unassigned) [Ex 384, 6'-((7-((4-(propan-2-ylsulfonimidoyl)phenyl)amino)-2,6-naphthyridin-1-yl)ethynyl)spiro[cyclobutane-1,3'-indolin]-2'-one], the IC50 on CDK4/CCND3 (setting [9]) and at CDK6/CCND1 (setting [10]) was greater than 250 nM each time.

Regarding `CC1(C)C(=O)Nc2cc(C#Cc3nccc4cnc(Nc5ccc(S(=N)(=O)C6CCC6)cc5)cc34)ccc21` (single isomer, unassigned) [Ex 454, 6-((7-((4-(cyclobutanesulfonimidoyl)phenyl)amino)-2,6-naphthyridin-1-yl)ethynyl)-3,3-dimethylindolin-2-one], the IC50 on CDK4/CCND3 (x = IC50 <25 nM, read-out: CDK4/CCND IC50 (<25 nM)) was less than 25 nM; at CDK1/CCNB1 (setting [2]), 25 to 250 nM.

Consider `CCC1(CC)C(=O)Nc2cc(C#Cc3nccc4cnc(Nc5ccc(S(=N)(=O)C6CCC6)cc5)cc34)ccc21` (single isomer, unassigned) [Example 413, 6-((7-((4-(cyclobutanesulfonimidoyl)phenyl)amino)-2,6-naphthyridin-1-yl)ethynyl)-3,3-diethylindolin-2-one], for which the IC50 at CDK4/CCND3 (setting [9]) was greater than 250 nM.

For `CS(=O)(=O)N1CCC(Nc2cc3c(-c4ccc(N5CCOCC5)cc4)nccc3cn2)CC1` [Ex 65, N-(1-(methylsulfonyl)piperidin-4-yl)-5-(4-morpholinophenyl)-2,6-naphthyridin-3-amine], the IC50 on CDK4/CCND3 (setting [6]) was in the range of 25 to 250 nM; on CDK2/CCNE1 (25-250 nM marked x, read-out: CDK2/CCNE IC50 25-250 nM), 25 to 250 nM; on CDK6/CCND1 (setting [5]) it was 25 to 250 nM.

With `CC1(C)C(=O)Nc2cc(C#Cc3nccc4cnc(Nc5ccc(S(C)(=O)=O)cc5F)cc34)ccc21` [Ex 438, 6-((7-((2-fluoro-4-(methylsulfonyl)phenyl)amino)-2,6-naphthyridin-1-yl)ethynyl)-3,3-dimethylindolin-2-one], the IC50 was greater than 250 nM on CDK4/CCND3 (setting [9]), less than 25 nM on CDK2/CCNE1 (setting [8]) and greater than 250 nM at CDK6/CCND1 (setting [10]).

As to `CC(=O)NCCn1cc2c(C)c(-c3nccc4cnc(Nc5ccc(S(C)(=O)=O)cc5)cc34)ccc2n1` [Ex 632, N-(2-(4-methyl-5-(7-((4-(methylsulfonyl)phenyl)amino)-2,6-naphthyridin-1-yl)-2H-indazol-2-yl)ethyl)acetamide], the IC50 is greater than 250 nM on CDK4/CCND3 (setting [9]); 25 to 250 nM on CDK2/CCNE1 (x = IC50 25-250 nM, read-out: CDK2/CCNE IC50 (25-250 nM)); greater than 250 nM on CDK6/CCND1 (setting [10]).

(Values after patent US20260325533A1, “CDK INHIBITOR COMPOUNDS” (ALEKSIA THERAPEUTICS, INC., priority 2023, published 2026).)
